The record followed here is ChEMBL document CHEMBL4387735, “Chemically synthesized LYRM03 could inhibit the metastasis of human breast cancer MDA-MB-231 cells in vitro and in vivo” (Bioorg Med Chem Lett, 2019).

In data set [1] the test system is MDA-MB-231. As to the kind of experiment: Cytotoxicity against human MDA-MB-231 cells assessed as reduction in cell viability at 100 ug/ml incubated for 48 hrs by MTT assay. Format: cell-based. Particulars: mda-mb-231, 48 h.
Data set [2] relates to MDA-MB-231. As to the kind of experiment: Antimetastatic activity against human MDA-MB-231 cells xenografted in SCID mouse assessed as reduction in metastasis foci formation in lungs at 100 mg/kg, ip administered 3 times per week by hematoxylin-eosin staining based assay. Format: functional, organism-based. For orientation: In xenograft studies the graft and the host belong to different species.

The target in data set [3] is Aminopeptidase N (Homo sapiens) (UniProt P15144). The following applies: MDA-MB-231, 50 ug/ml.
Chain of Aminopeptidase N (Homo sapiens) (P15144 whole entry): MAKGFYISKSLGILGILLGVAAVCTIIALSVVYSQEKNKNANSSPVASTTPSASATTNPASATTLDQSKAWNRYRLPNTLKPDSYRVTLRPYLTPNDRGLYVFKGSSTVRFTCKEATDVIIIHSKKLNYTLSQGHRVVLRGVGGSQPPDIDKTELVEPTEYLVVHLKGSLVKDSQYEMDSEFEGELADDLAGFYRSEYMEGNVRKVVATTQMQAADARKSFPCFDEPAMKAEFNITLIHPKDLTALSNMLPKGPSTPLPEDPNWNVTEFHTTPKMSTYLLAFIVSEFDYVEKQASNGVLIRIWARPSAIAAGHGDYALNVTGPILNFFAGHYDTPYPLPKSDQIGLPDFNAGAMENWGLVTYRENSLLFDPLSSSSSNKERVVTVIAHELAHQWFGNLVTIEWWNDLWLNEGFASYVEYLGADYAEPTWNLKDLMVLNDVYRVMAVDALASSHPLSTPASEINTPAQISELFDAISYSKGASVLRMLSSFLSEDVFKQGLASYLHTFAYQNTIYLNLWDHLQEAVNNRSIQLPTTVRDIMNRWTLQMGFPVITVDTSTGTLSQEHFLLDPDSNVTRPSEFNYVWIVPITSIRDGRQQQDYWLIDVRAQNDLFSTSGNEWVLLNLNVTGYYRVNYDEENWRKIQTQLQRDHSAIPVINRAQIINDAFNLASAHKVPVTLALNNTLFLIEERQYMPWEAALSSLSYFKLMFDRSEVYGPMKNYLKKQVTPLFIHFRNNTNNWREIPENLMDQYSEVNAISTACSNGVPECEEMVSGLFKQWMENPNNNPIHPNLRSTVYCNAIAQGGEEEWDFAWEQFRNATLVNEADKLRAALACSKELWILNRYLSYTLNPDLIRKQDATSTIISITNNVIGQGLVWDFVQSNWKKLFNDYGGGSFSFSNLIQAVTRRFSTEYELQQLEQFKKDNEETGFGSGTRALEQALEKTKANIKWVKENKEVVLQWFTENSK
Description: Inhibition of human APN in MDA-MB-231 cells at 50 ug/ml using L-leucine-p-nitroanilide as a substrate incubated for 1 hr by spectrophotometric method relative to control
For data set [4], the system named is MDA-MB-231. As to the kind of experiment: Induction of apoptosis in human MDA-MB-231 cells assessed as early apoptotic cells at 50 ug/ml by Annexin V/PI staining based flow cytometric method (reference value: 0.54%). Format: functional. On the technique in general: Flow cytometry measures light scatter and fluorescence of single cells or particles in a stream.

Data set [5] has as its system MDA-MB-231. As to the kind of experiment: Induction of apoptosis in human MDA-MB-231 cells assessed as live cells at 50 ug/ml by Annexin V/PI staining based flow cytometric method (reference value: 90.75%). Format: functional.
For data set [6], the system named is MDA-MB-231. As to the kind of experiment: Cytotoxicity against human MDA-MB-231 cells assessed as reduction in cell viability at 100 ug/ml incubated for 24 to 48 hrs by MTT assay relative to control. Format: cell-based. For orientation: Tetrazolium dyes change colour on reduction, which living cells bring about.
The target of data set [7] is Aminopeptidase N (Homo sapiens) (UniProt P15144). As to the kind of experiment: Inhibition of human APN in MDA-MB-231 cells at >50 ug/ml using L-leucine-p-nitroanilide as a substrate incubated for 1 hr by spectrophotometric method relative to control. Format: cell-based.
The subject of data set [8] is MDA-MB-231. As to the kind of experiment: Effect on APN protein expression in human MDA-MB-231 cells at 10 to 100 ug/ml by Western blot analysis. Format: functional, cell-based.
Data set [9] concerns MDA-MB-231. As to the kind of experiment: Induction of apoptosis in human MDA-MB-231 cells assessed as late apoptotic cells at 50 ug/ml by Annexin V/PI staining based flow cytometric method (reference value: 0.92%). Format: functional.
Data set [10] concerns MDA-MB-231. As to the kind of experiment: Induction of apoptosis in human MDA-MB-231 cells assessed as necrotic cells at 50 ug/ml by Annexin V/PI staining based flow cytometric method (reference value: 7.79%). Format: functional.
In data set [11] the test system is MDA-MB-231. As to the kind of experiment: Induction of apoptosis in human MDA-MB-231 cells assessed as live cells at 100 ug/ml by Annexin V/PI staining based flow cytometric method (reference value: 90.75%). Format: functional.
In data set [12] the test system is MDA-MB-231. As to the kind of experiment: Induction of apoptosis in human MDA-MB-231 cells assessed as early apoptotic cells at 100 ug/ml by Annexin V/PI staining based flow cytometric method (reference value: 0.54%). Format: functional.
The test system of data set [13] is MDA-MB-231. As to the kind of experiment: Induction of apoptosis in human MDA-MB-231 cells assessed as late apoptotic cells at 100 ug/ml by Annexin V/PI staining based flow cytometric method (reference value: 0.92%). Format: functional.
Data set [14] has as its system MDA-MB-231. As to the kind of experiment: Induction of apoptosis in human MDA-MB-231 cells assessed as necrotic cells at 100 ug/ml by Annexin V/PI staining based flow cytometric method (reference value: 7.79%). Format: functional.
Data set [15] deals with MDA-MB-231. As to the kind of experiment: Inhibition of colony formation in human MDA-MB-231 cells at 50 to 100 ug/ml incubated for 10 days. Format: functional, cell-based.
The subject of data set [16] is MDA-MB-231. As to the kind of experiment: Inhibition of cell migration in human MDA-MB-231 cells incubated upto to 24 hrs by wound healing assay. Format: functional, cell-based.
The test system of data set [17] is MDA-MB-231. As to the kind of experiment: Antimigratory activity in human MDA-MB-231 cells assessed as induction of slow cell migration at 100 ug/ml incubated up to 24 hrs by wound healing assay. Format: functional, cell-based.
Data set [18] concerns MDA-MB-231. As to the kind of experiment: Antimetastatic activity in human MDA-MB-231 cells assessed as reduction in cell migration at 50 to 100 ug/ml incubated for 24 hrs by transwell assay. Format: functional, cell-based.
In data set [19] the test system is MDA-MB-231. As to the kind of experiment: Effect on MMP2 protein expression in human MDA-MB-231 cells. Format: functional, cell-based.
Data set [20] relates to MDA-MB-231. As to the kind of experiment: Effect on MMP7 protein expression in human MDA-MB-231 cells. Format: functional, cell-based.
Data set [21] relates to MDA-MB-231. As to the kind of experiment: Effect on MMP9 protein expression in human MDA-MB-231 cells. Format: functional, cell-based.
Data set [22] deals with MDA-MB-231. As to the kind of experiment: Induction of apoptosis in human MDA-MB-231 cells assessed as induction of PARP cleavage at 10 to 100 ug/ml 6 to 48 hrs by Western blot analysis. Format: functional, cell-based.
In data set [23] the test system is MDA-MB-231. As to the kind of experiment: Inhibition of cell migration in human MDA-MB-231 cells assessed as scratch healing at 10 to 100 ug/ml incubated for 24 hrs by wound healing assay. Also noted: scale not given: the % may be the effect or the level left. Format: functional.

Activity calls are given as the source filed them. The rule behind the calls is not given here. Bounds are passed on as bounds.

What is called inhibition is the relative decrease from the control value, in per cent. Consider `CC(C)C[C@H](NC(=O)[C@@H](O)[C@H](N)Cc1ccccc1)C(=O)O` [UBENIMEX], for which, in the data set on MDA-MB-231 [1], the Activity result is reported as “Toxic”. Moreover, in the data set with MDA-MB-231 [2], the result was Active. For the same molecule, the inhibition entry in [3] was “Active”.

For `CC[C@H](C)[C@H](NC(=O)[C@@H](NC(=O)[C@@H](O)[C@H](N)Cc1ccccc1)C(C)C)C(=O)O`, the Activity in the data set with MDA-MB-231 [4] is recorded as 0.73%; with MDA-MB-231 [5] it was 89.98%; in the data set on MDA-MB-231 [6], “<= 20%”; with MDA-MB-231 [9] it was 0.77%; in the data set on MDA-MB-231 [10] it was 8.51%; with MDA-MB-231 [11], 89.5%. In addition, the Activity in the data set with MDA-MB-231 [12] is on record as 0.71%; in the data set with MDA-MB-231 [13] it was 0.75%; in the data set on MDA-MB-231 [14], 9.05%; in the data set on MDA-MB-231 [23], 50%. Besides, the values for the inhibition (in data set [7]; in the data set with MDA-MB-231 [16]) were more than 50% and “Dose-dependent effect”, respectively. The result with MDA-MB-231 [8], with MDA-MB-231 [19], with MDA-MB-231 [20], in the data set on MDA-MB-231 [21] and in the data set on MDA-MB-231 [22] was inactive. The inhibition entry in the data set with MDA-MB-231 [15] is “Active”. Also, the outcome in the data set with MDA-MB-231 [17], in the data set on MDA-MB-231 [18] and with MDA-MB-231 [2] was Active.
